Earlier results on one substance are cited in paper PMC4853309 (Protein expression and purification, 2015).

The target of the series is NprR. Particulars: read-out: estimated binding affinity (KD); cited from earlier work.

By Kd is commonly meant the free concentration of one partner at which half of the binding sites on the other are occupied at equilibrium, for simple one-to-one binding. Consider SKPDIVG [NprX7], for which the Kd was around 50 nM.
